Series [1] deals with Vero E6 cell line. The following applies: for CC50: MTT.
Series [2] relates to ZIKV (MR766, Uganda). Format: cell-based, Zika virus. The following applies: Vero E6; ZIKV MOI 1; five days; highest concentration without cytotoxicity (MCC).
For series [3], the system named is Vero E6 cell line. The following applies: compound concentration producing minimal changes in cell morphology, estimated by microscopy.
The subject of series [4] is CHIKV (Guatemala). In words: CPE inhibition assay, CHIKV on Vero E6. The following applies: MOI 0.1, 3 days, MTT. It counts as cell-based, chikungunya virus.
In series [5] the test system is SARS-CoV-2 (B.1.5 (G) isolate, Hungarian). Format: cell-based, severe acute respiratory syndrome coronavirus 2. The following applies: Vero E6, 3 days, MTT.
For series [6], the system named is Vero E6 cells. In words: Phospholipidosis assay (LipidTOX Deep Red). The following applies: 48 h. Format: cell-based, African green monkey (Cercopithecus aethiops). On the procedure: Vero E6 cells were seeded in 96-well plates and treated with compound 7 at the indicated concentrations for 48 h. Propranolol (30 µM) was used as a positive control and DMSO as vehicle control. Phospholipid accumulation was detected using LipidTOX™ Deep Red phospholipidosis stain (Thermo Fisher Scientific, Waltham, MA, USA, H34158) according to the manufacturer’s instructions. Nuclei were counterstained with Hoechst 33342. Representative images were acquired by confocal microscopy.

The test system of series [7] is ZIKV. Nature of the series: Time of drug addition assay (qRT-PCR). It counts as cell-based, Zika virus. The following applies: Vero E6, MOI 1, 50 µM, 24 h pi. On the procedure: Vero E6 cells were seeded on 96-well plates at 3.5 × 10^4 well and incubated (37 °C, 5% CO2) overnight. The cells were infected for 1 h with MOI of 1. Cells were treated with 50 µM of compound 7. Cells were treated at three different times: 1 h before infection, concurrently with the infection, and one hour post-infection. After the infection, the supernatant was discarded and the cells were incubated for 24 h with the media, then RNA was isolated from the supernatant and quantified using qRT-PCR (see below).
(§1) For viral RNA isolation, the Total RNA Miniprep Kit (New England Biolabs, Ipswich, USA) was used, following the manufacturer’s instruction. After RNA elution, samples were stored at −80 °C until use. For the determination of viral RNA quantity, we used the Luna® Universal Probe One-Step RT-qPCR Kit (New England Biolabs, Ipswich, MA, USA). The primers used were ZIKV_NS1_F: […], ZIKV_NS1_R: […], and the probe was FAM-5′-CCC GCA GAT-3′ /ZEN/ 5′-TGG CAG CAG-3′-BHQ1. […]
We divided the samples into five groups based on the timing of treatment: no-treatment (ZIKV), pre-treatment for 1 h (pre), co-treatment (co), post-treatment for 1 h (post), and full treatment (full) (Figure 3A). Twenty-four hours post-infection (pi), we isolated viral RNA from the supernatant and quantified it using qRT-PCR. […]

The test system of series [8] is ZIKV. Nature of the series: Binding assay (qRT-PCR). Format: cell-based, Zika virus. The following applies: Vero E6; MOI 1; 50 µM; 1 h at 4 °C. On the procedure:
(§2) Vero E6 cells were seeded on 96 well plate 3.5 × 10^4 well and incubated (37 °C, 5% CO2) overnight. 1 h before the infection we put the cells at 4 °C. During the entry assay cells were infected for 1 h at 4 °C and MOI of 1, then washed twice with PBS. Afterward, they were treated with 50 µM of compound 7, lasting for 1 h (37 °C, 5% CO2). During the binding assay the cells were infected as before for 1 h at 4 °C and at the same time treated with 50 µM of compound 7. Following both of the treatments, the cells were washed once with PBS, then RNA was isolated from the cells. Viral RNA was quantified using qRT-PCR (see below). This assay was developed based on the methods established by Lu et al..
as §1
(§3) To gain a more precise understanding of the mechanism of action of compound 7, binding and entry assays were performed. […] After incubation, cells were washed with PBS prior to RNA extraction, and viral RNA levels were quantified by qRT-PCR.
In general terms: In qPCR the cycle at which signal appears reflects the starting amount.

Series [9] relates to ZIKV. In words: Liposome-based capsid protection assay (virus–liposome fusion). Format: biochemical, Zika virus. The conditions noted are these: trypsin-containing liposomes; pH 5.3; 10, 50 μM.
The subject of series [10] is ZIKV. In words: Virion destabilization assay (RNase A, qRT-PCR). It counts as biochemical, Zika virus. The following applies: 50 µM, 1 h, 37 °C, then RNase A.
The test system of series [11] is ZIKV. Nature of the series: Entry assay (qRT-PCR). The following applies: Vero E6; MOI 1; infection 1 h 4 °C, then 50 µM 1 h 37 °C. Format: cell-based, Zika virus. On the procedure: as §2, §1, §3
Series [12] has as its system ZIKV. Nature of the series: Virion inactivation assay (cell-free pre-incubation, plaque assay). Format: cell-based, Zika virus.

“Also recorded” adds a separate entry of the source. Where only a bound is given, the exact number is not on record here.

As a reminder, the CC50 is the concentration at which the toxic effect on the cells reaches its halfway point. A lower CC50 goes with greater toxicity to the cells. For `CC(=O)N[C@H]1[C@H](O[C@@H]2c3ccc(c(Cl)c3)Oc3cc4cc(c3O)Oc3ccc(cc3Cl)C[C@H]3NC(=O)[C@H](NC(=O)CCC(F)(F)C(F)(F)C(F)(F)C(F)(F)C(F)(F)C(F)(F)C(F)(F)C(F)(F)F)c5ccc(O)c(c5)Oc5cc(O)cc(c5)[C@H](NC3=O)C(=O)N[C@H]4C(=O)N[C@H]3C(=O)N[C@@H]2C(=O)N[C@H](C(=O)O)c2cc(O)cc(O)c2-c2cc3ccc2O)O[C@H](CO)[C@@H](O)[C@@H]1O` [Compound 6], in series [1], the midpoint of cytotoxicity, the CC50, lay at 175 µM. For the same compound, the “cytopathic effects (microscopy)” value in series [2] is “we did not observed any CPE; also recorded: No cytopathic effects were observed”. Besides, the MCC in series [3] was more than 60 µM.

`CC(=O)N[C@H]1[C@H](O[C@@H]2c3ccc(c(Cl)c3)Oc3cc4cc(c3O)Oc3ccc(cc3Cl)C[C@H]3NC(=O)[C@H](n5cc(COCCOCCCC(F)(F)C(F)(F)C(F)(F)C(F)(F)C(F)(F)C(F)(F)F)nn5)c5ccc(O)c(c5)Oc5cc(O)cc(c5)[C@H](NC3=O)C(=O)N[C@H]4C(=O)N[C@H]3C(=O)N[C@@H]2C(=O)N[C@H](C(=O)O)c2cc(O)cc(O)c2-c2cc3ccc2O)O[C@H](CO)[C@@H](O)[C@@H]1O` [Compound 2] registered a 50% cytotoxic concentration (CC50) in series [1] of 195 µM. The “cytopathic effects (microscopy)” value in series [2] is recorded as “we did not observed any CPE; also recorded: No cytopathic effects were observed”. Besides, the MCC in series [3] is more than 40 µM.

In the case of `CC(=O)N[C@H]1[C@H](O[C@@H]2c3ccc(c(Cl)c3)Oc3cc4cc(c3O)Oc3ccc(cc3Cl)C[C@H]3NC(=O)[C@H](n5cc(COCCOCCCC(F)(F)C(F)(F)C(F)(F)C(F)(F)C(F)(F)C(F)(F)C(F)(F)C(F)(F)F)nn5)c5ccc(O)c(c5)Oc5cc(O)cc(c5)[C@H](NC3=O)C(=O)N[C@H]4C(=O)N[C@H]3C(=O)N[C@@H]2C(=O)N[C@H](C(=O)O)c2cc(O)cc(O)c2-c2cc3ccc2O)O[C@H](CO)[C@@H](O)[C@@H]1O` [Compound 1], in series [1], it took 149 µM to reach half-maximal cytotoxicity (CC50). The MCC in series [3] is reported as more than 50 µM.

By EC50 is commonly meant the midpoint of the concentration-response curve. A high value points to a need for much substance. For the compound Teicoplanin [reference compound], the figures for the EC50 in [4] and in series [5] were 86.2 µM and 33.9 µM, respectively. Also, it took 280 µM to reach half-maximal cytotoxicity in [1] (CC50). Besides, the MCC in series [3] is more than 60 µM.

In [1], `CC(=O)NC1C(OC2c3ccc(c(Cl)c3)Oc3cc4cc(c3O)Oc3ccc(cc3Cl)CC3NC(=O)C(NC(=O)CCC(F)(F)C(F)(F)C(F)(F)C(F)(F)C(F)(F)C(F)(F)F)c5ccc(O)c(c5)Oc5cc(O)cc(c5)C(NC3=O)C(=O)NC4C(=O)NC3C(=O)NC2C(=O)NC(C(=O)O)c2cc(O)cc(O)c2-c2cc3ccc2O)OC(CO)C(O)C1O` (stereo not drawn) [Compound 7] had a CC50 of 203 µM. Besides, the “concentration from which phospholipidosis is detectable” value in series [6] was not below 2.5 µM. The phospholipidosis response entry in series [6] (positive control propranolol 30 µM) is given as “weak phospholipidosis response”. For the same compound, the “cytopathic effects (microscopy)” value in series [2] is recorded as “No cytopathic effects were observed”. Moreover, in [7] (1 h before infection), the “viral RNA level vs no-treatment, pre-treatment (before infection)” value is listed as “No significant inhibition”. In addition, the “viral RNA level vs no-treatment, post-treatment (after viral entry)” value in [7] (1 h post-infection) was “No significant inhibition”. Moreover, the “viral RNA level, binding assay, treated vs control” value in series [8] was “No significant differences”. The MCC in [3] is listed as more than 60 µM. Further, the “capsid protein signal under low-pH fusion conditions (Western blot)” value in series [9] is on record as “preserved the capsid signal”. In series [10], the “viral RNA copy number vs negative control (virion integrity)” value is “No significant reduction”. In addition, the “viral RNA level, entry assay, treated vs control” value in series [11] is “No significant differences”. For the same compound, the “reduction of viral titer vs untreated control” value in series [12] was “approximately one order of magnitude”.

Take `COC(=O)C1NC(=O)C2NC(=O)C(NC(=O)C3NC(=O)C4NC(=O)C(NC(=O)C(NC(=O)CCC(F)(F)C(F)(F)C(F)(F)C(F)(F)C(F)(F)C(F)(F)C(F)(F)C(F)(F)F)c5ccc(O)c(c5)Oc5cc4cc(O)c5C)C(O)c4ccc(cc4)Oc4cc3cc(c4O)Oc3ccc(cc3)C2O)c2ccc(O)c(c2)-c2c(O)cc(O)cc21` (stereo not drawn) [Compound 8]: in series [1], the “cytotoxic effects (in words)” value is given as “slightly cytotoxic” and the CC50 was determined as 62.6 µM. For the same compound, the MCC in [3] is given as more than 20 µM.

Take `CC(=O)N[C@H]1[C@H](O[C@@H]2c3ccc(c(Cl)c3)Oc3cc4cc(c3O)Oc3ccc(cc3Cl)C[C@H]3NC(=O)[C@H](n5cc(COCCOCCCC(F)(F)C(F)(F)C(F)(F)C(F)(F)F)nn5)c5ccc(O)c(c5)Oc5cc(O)cc(c5)[C@H](NC3=O)C(=O)N[C@H]4C(=O)N[C@H]3C(=O)N[C@@H]2C(=O)N[C@H](C(=O)O)c2cc(O)cc(O)c2-c2cc3ccc2O)O[C@H](CO)[C@@H](O)[C@@H]1O` [Compound 3]: the CC50 in series [1] turned out to be 198 µM. Also, in [2], the “cytopathic effects (microscopy)” value was “we did not observed any CPE; also recorded: No cytopathic effects were observed”. The MCC in series [3] is reported as more than 50 µM.

These data come from publication PMC13415800 (Pharmaceutics, 2026).
